C#C[C@]1(O)CC[C@H]2[C@@H]3CCC4=CC(=O)CC[C@@H]4[C@H]3C(=C)C[C@@]21CC
solubility (mole fraction)
Settings | in DMF | in THF | in acetone | in ethanol | in ethyl acetate | in isopropanol | in methyl acetate | in n-butanol | in n-propanol | in water
273.15 K | 0.0757 | 0.0739 | 0.012 | 0.0017 | 0.0189 | 0.00463 | 0.0104 | 0.00421 | 0.00452 | 1.38e-05
278.15 K | 0.0792 | 0.0891 | 0.0133 | 0.00209 | 0.022 | 0.00545 | 0.0119 | 0.00514 | 0.00514 | 1.64e-05
283.15 K | 0.0825 | 0.106 | 0.0148 | 0.00249 | 0.0249 | 0.00633 | 0.0135 | 0.00615 | 0.00585 | 1.92e-05
288.15 K | 0.0865 | 0.125 | 0.0165 | 0.00293 | 0.0291 | 0.00731 | 0.0153 | 0.00742 | 0.00657 | 2.24e-05
293.15 K | 0.0888 | 0.148 | 0.0184 | 0.00343 | 0.0338 | 0.00851 | 0.017 | 0.00904 | 0.00753 | 2.6e-05
298.15 K | 0.0965 | 0.173 | 0.0198 | 0.00412 | 0.0383 | 0.00994 | 0.019 | 0.0109 | 0.00865 | 3.1e-05
303.15 K | 0.0974 | 0.2 | 0.0224 | 0.00494 | 0.043 | 0.0115 | 0.0211 | 0.0126 | 0.00974 | 3.65e-05
308.15 K | 0.101 | 0.223 | 0.0248 | 0.00593 | 0.0476 | 0.0132 | 0.0229 | 0.0148 | 0.0112 | 4.25e-05
313.15 K | 0.105 | 0.263 | 0.0273 | 0.00695 | 0.0539 | 0.0154 | 0.025 | 0.0171 | 0.0124 | 4.91e-05
318.15 K | 0.109 | 0.299 | 0.03 | 0.00817 | 0.059 | 0.0178 | 0.0271 | 0.0198 | 0.0142 | 5.62e-05
323.15 K | 0.115 | 0.332 | 0.0335 | 0.00967 | 0.0648 | 0.0209 | 0.0294 | 0.0227 | 0.0159 | 6.37e-05

Reference: BigSolDB 2.1
